What was measured:
Assay type in all cases: toxicity, cell-based
HEK-293T = test: Incucyte cell viability with HEK293T; settings: human, 24 h, 10 µM, compound concentration 10 uM
Fibroblast = test: Incucyte cell viability with human fibroblast; settings: 24 h, 10 µM, compound concentration 10 uM
U2OS = test: Incucyte cell viability with U2OS; settings: human, 24 h, 10 µM, compound concentration 10 uM
Also: unitless GR value; below 1 slowed growth and below 0 cell loss.

Row | SMILES | Growth Rate (HEK-293T; replicate number 1) | Growth Rate (Fibroblast; replicate number 1) | Growth Rate (Fibroblast; replicate number 2) | Growth Rate (U2OS; replicate number 1) | Growth Rate (U2OS; replicate number 2) | Growth Rate (HEK-293T; replicate number 2)
1 | COc1cc(Oc2ccnc3cc(OC)c(OC)cc23)ccc1NC(=O)NC(C)c1nccs1 (stereo not given) | 1 | 0.18 | -0.01 | 0.56 | 0.82 | 
2 | CCN1C(C)(C)CC(Oc2ccc(C(=O)Nc3ccc(NC(=O)Nc4cc(C(C)(C)C)on4)cc3)nc2)CC1(C)C | -0.29 | 0.74 | 0.78 | 0.51 | 0.66 | 0.58
3 | Cc1cc(OCc2nnc(SC3CCCC3)n2-c2cccnc2)ccc1-c1ccc(S(C)(=O)=O)cc1 | -0.22 | -0.37 | -0.82 | -0.5 | -0.4 | 
4 | N=C(N)N/N=C/c1cccc(Cl)c1Cl | 0.5 | 0.46 | 0.86 | 0.24 | 0.53 | 0.8
5 | O=C(Nc1ccc2[nH]nc(-c3ccncc3)c2c1)[C@@H]1CCN(CC(=O)N2CCN(c3ccc(-c4ncccn4)cc3)CC2)C1 | -0.08 | 1 |  | 0.65 | 1 | -0.01
6 | O=C(C1CC1)N1CC[C@@H](Cc2n[nH]c(=O)n2-c2ccc(-c3ccc4occc4c3)cc2)C1 | 0.73 | 0.43 | 0 | 0.54 | 0.69 | 1
7 | O=C(NO)c1cnc(NC2(c3ccccc3)CC2)nc1 | 0.73 | -0.29 | 0.31 | -0.38 | -0.13 | 0.94
8 | O=C(c1ccc2c(ccn2-c2ccc(F)cc2)c1)N1CC(N2CCN(C(=O)c3nccs3)CC2)C1 | 0.76 | 0.6 | 1 | 0.99 | 0.91 | 0.97
9 | CSc1cccc(Nc2ncc3cc(-c4c(Cl)cccc4Cl)c(=O)n(C)c3n2)c1 | -0.41 | -0.25 | -0.52 | -0.64 | -0.15 | 0.24
10 | Cc1cc(Cn2c(=O)n(Cc3cnc(C)s3)c(=O)c3cc(S(=O)(=O)NC4(C)CC4)ccc32)n(C)n1 | 0.6 | 0.47 | 0.68 | 0.64 | 0.54 | 0.74
11 | C[C@@H]1CN(c2ncc(Cl)c(Nc3ccc4c(c3)n(CCC(C)(C)O)c(=O)n4C)n2)C[C@H](C)C1(F)F | 0.18 | 0.91 | -0.13 | 0.72 | 0.69 | 0.21
12 | CC(C)(O)c1ccc(N2Cc3c(ccnc3-c3ccc(F)cc3OCC(F)(F)F)C2=O)cc1 | 0.87 | 0.68 | 0.44 | 0.05 | 1 | 1
13 | [2H]C([2H])([2H])C1(C([2H])([2H])[2H])Cn2nc(-c3ccc(F)cn3)c(-c3ccnc4[nH]ncc34)c2CO1 | 0.81 | 0.73 | 1 | 0.32 | 0.8 | 0.89
14 | COc1cccc(-c2nccc3c2CN(c2ccccc2)C3=O)c1 | 0.75 | 0.52 | 0.84 | 1 | 0.84 | 0.7
15 | C[C@@H]1CN(c2nccc(Nc3ccc4c(c3)n(CCC(C)(C)O)c(=O)n4C)n2)C[C@H](C)C1(F)F | 0.03 | 0.74 | 1 | 0.72 | 0.76 | 0.19
16 | CC(=O)Nc1ccc(-c2cc(-c3ccccc3)nc3cc(C(=O)NCCCn4ccnc4)nn23)cc1 | 0.47 | 0.41 | 1 | 1 | 0.62 | 0.63
17 | O=C(NCCCn1ccnc1)c1cc2nc(-c3ccccc3)cc(-c3ccccc3)n2n1 | 0.48 | 0.96 | 1 | 0.13 | 0.75 | 0.98
18 | Cc1ncsc1-c1ccc(CNC(=O)[C@@H]2C[C@@H](O)CN2C(=O)[C@@H](NC(=O)COCCOCCOc2ccc(-c3ccc4ncnc(Nc5ccc(OCc6cccc(F)c6)c(Cl)c5)c4c3)cc2)C(C)(C)C)cc1 | 1 | 1 | 0.62 | 1 | 0.6 | 
19 | COc1cc(-c2cn(C)c(=O)c3cnccc23)cc(OC)c1CN(C)CC(=O)NCCOCCOCCNc1cccc2c1C(=O)N(C1CCC(=O)NC1=O)C2=O (stereo not given) | 0.8 | 0.26 | 0.72 | 0.78 | 0.96 | 0.98

Row | SMILES | Growth Rate (HEK-293T; replicate number 1) | Growth Rate (Fibroblast; replicate number 1) | Growth Rate (Fibroblast; replicate number 2) | Growth Rate (U2OS; replicate number 1) | Growth Rate (U2OS; replicate number 2) | Growth Rate (HEK-293T; replicate number 2)
20 | C[C@H](NC(=O)c1cn(C2(C#N)CC2)cn1)C(=O)Nc1nc(-c2cccc(-c3ccn(C)n3)c2)cs1 | 0.9 | 0.43 | 1 | 0.33 | 1 | 0.86
21 | CCn1c(=O)c(C)cn(Cc2nnc(-c3ccc(F)c(O)c3F)s2)c1=O | 1 | 0.03 | 1 | 1 | 0.92 | 0.97
22 | COCCOCCn1nc2c(c1C)-c1c(Cl)ccc3c1c(C)c(C(=O)O)n3CCCOc1cc(cc3c(F)c(Cl)ccc13)CCc1cc(nn1C)CSC2 | 0.27 | -0.35 | -0.82 | 0.15 | 0.75 | 0.51
23 | Cc1cc(C(=O)N2CCN(C3CN(C(=O)c4ccc(-c5ccccc5)cc4)C3)CC2)no1 | 0.61 | 0.37 | 0.27 | 0.79 | 1 | 0.63
24 | CCn1c(=O)c(C)cn(Cc2nnc(-c3ccc(F)c(OC)c3F)s2)c1=O | 0.83 | 0.35 | 1 | 0.26 | 1 | 0.9
25 | COC[C@H](NC(=O)c1ccn(S(C)(=O)=O)c1)C(=O)Nc1nc(-c2cccc(-c3ccn(C)n3)c2)cs1 | 1 | 0.89 | 1 | 0.77 |  | 
26 | CCC[C@H]1CNCc2c1[nH]c(=O)c(C#N)c2N1CCC2(CC1)CC2.Cl | 0.75 | -0.11 | 0.09 | 0.97 | 1 | 0.9
27 | CCC[C@@H]1CNCc2c1[nH]c(=O)c(C#N)c2N1CCC2(CC1)CC2.Cl | 0.66 | 0.62 | 0.92 | 0.72 | 0.8 | 0.97
28 | Cn1ncc2c(-c3c(-c4ccc(F)cn4)nn4c3COC(C)(C)C4)ccnc21 | 0.85 | 0.66 | 1 | 0.55 | 0.95 | 0.8
29 | O=C(c1ccc2[nH]ccc2c1)N1CCN(S(=O)(=O)c2ccc3[nH]c(=O)oc3c2)CC1 | 0.91 | 0.24 | 1 | 0.5 | 0.82 | 1
30 | CNC(=O)c1cc(Nc2ccnc(Nc3ccc(CCNC(=O)OC(C)(C)C)cc3)n2)[nH]n1 | 0.07 | 1 |  | 0.07 | 0.79 | 0.24
31 | O=C(Nc1c[nH]nc1C(=O)NC1CCNCC1)c1cc(F)cc(F)c1 | 0.15 | -0.45 | -0.55 | -0.13 | 0.19 | 0.14
32 | Cn1cc(NC(=O)c2cc(F)cc(F)c2)c(C(=O)NC2CCNCC2)n1 | 0.67 | 0.67 | 1 | 0.63 | 0.71 | 0.9
33 | CC(C)c1cnc(CSc2cnc(NC(=O)C3CCNCC3)s2)o1 | -0.28 | -0.05 | -0.46 | -0.6 | -0.31 | -0.09
34 | CN1CCN(c2cc(C(=O)Nc3ncc(SCc4cccc(C(F)(F)F)c4)s3)ccn2)CC1 | 0.24 | 0.19 | 1 | 0.31 | 0.48 | 0.59
35 | CC(C)(C)OC(=O)Nc1ccc(CNc2nccc(Nc3cc(C(=O)OC(C)(C)C)[nH]n3)n2)cc1 | -0.38 | 1 | 0.07 | 0.42 | 0.67 | -0.24
36 | O=C(NCC1CCOCC1)c1n[nH]cc1NC(=O)c1c(F)cccc1F | 0.35 | -0.35 | 0.3 | 0.03 | 0.42 | 0.49
37 | CNC(=O)c1cnc(N2CCC[C@H](N)C2)nc1Nc1cc(C(C)C)nc(C(C)C)c1 | -0.35 | 0.72 | 0.44 | -0.44 | 0.05 | -0.02

Reference: ChEMBL document CHEMBL5724709, “EUbOPEN Chemogenomics Library - IncuCyte” (2024)
